# From US8822440B2, “Inhibiting cyclin D polypeptides” (Mayo Foundation for Medical Education and Research, priority 2006, dated 2014)
# “Also recorded” adds a separate entry of the source.
# Columns and labels:
# CD138+ myeloma cells = experiment: Unsorted myeloma patient bone marrow, flow cytometry: CD138+ myeloma cells; assay type: cell-based, human; conditions: unsorted myeloma patient bone marrow samples
# Protocol: (§1) Flow cytometry. HMCL were treated as indicated and then washed in cold phosphate-buffered saline (PBS) and resuspended in buffer containing AnnexinV-FITC and propidium iodide (BD Biosciences, San Jose, Calif.) for 15 minutes at room temperature. Cells (10^5) were subsequently diluted and analyzed immediately by flow cytometry (FACScan, BD Biosciences, San Jose, Calif.) using CellQuest software. Patient bone marrow specimens were prepared and analyzed in a similar fashion using AnnexinV-FITC and anti-CD138-PE (BD Biosciences, San Jose, Calif.).
# (§2) As mouse embryos that lack any D-cyclins eventually die from hematopoietic failure (Kozar et al., Cell, 118, 477-91 (2004)), the bone marrow might be predicted to be one of the most sensitive non-malignant tissue to be affected by drugs targeting cyclin D expression. Unsorted bone marrow samples from myeloma patients were treated with kinetin riboside to assess the relative cytotoxicity of this drug on malignant versus non-malignant marrow cells. Bone marrow samples were first processed to remove non-nucleated red cells and were then treated for 48 hours with kinetin riboside (5 μM).
# [1] = tested on: human myeloma cell lines (HMCL); experiment: HMCL viability / cytotoxicity (MTT, MTS); assay type: cell-based
# Protocol: Subsequent validation studies using selected compounds in human myeloma cell lines (HMCL) confirmed successful suppression of both cyclin D2 and D1 polypeptides. Each of these compounds was then shown to be cytotoxic to a genetically diverse and standardized panel of 14 HMCL in MTT assays: monensin (10-760 nM), camptothecin (5-700 nM), dihydrogambogic acid (250-800 nM), pristimerin (150-500 nM), and kinetin riboside (2.5-20 μM). Cell cycle analysis confirmed induction of G0/G1 phase arrest for most compounds, consistent with cyclin D inhibition.
# (§3) Viability assay. The effects of screened compounds on cell viability was assessed by 3-(4,5-dimethyl[…])-5-(3-carboxymethoxyphenyl)-2-(4-sulfophenyl)-2-H-tetrazolium (MTS) assay according to the manufacture's instructions (Progmega, Madison, Wis.). MTS reagent (20 μL/well in 96 well plates) was added to cells, and these were then incubated at 37° C. for 4 hours. Absorbance at 490 nm was determined using a 96-well plate reader.
# CCND2 promoter = experiment: CCND2 promoter-luciferase transactivation assay in NIH3T3 cells with or without c-maf; assay type: cell-based, mouse; conditions: for identified as putative inhibitor of CCND2 transactivation (screen hit): ~5 μM, hit = 50% or more reduction in luciferase relative to cell viability; for identified as putative inhibitor of CCND2 transactivation (screen hit) / effect on CCND2-luc expression, agent alone: 16 hours; for effect on kinetin riboside-induced suppression of CCND2 / effect on CCND2-luc expression, agent alone: NIH3T3 reporter cells; for effect on kinetin riboside-induced suppression of CCND2: with kinetin riboside; for effect on CCND2-luc expression, agent alone: 5 μM
# Protocol: Using this assay, Lopac (n=1280), Prestwick (n=1120), and Spectrum (n=2000) libraries of drugs and natural compounds were screened. In a parallel MTS assay, the effect of each compound on 3T3 viability was determined, allowing exclusion of compounds that caused secondary suppression of CCND2 due to non-specific cytotoxicity. […] These included monensin, patulin, β-lapachone, camptothecin, dihydrogambogic acid, gentian violet, thapsigargin, brefeldin A, pristimerin, and kinetin riboside.
# Full-length c-maf cDNA was subcloned into an IRES-GFP MIEV retroviral vector and introduced into NIH3T3 cells by infection. Stable clones expressing GFP and c-maf were selected by flow cytometry and immunoblotting, respectively. The promoter of human cyclin D2 (−894 to −4; Brooks et al., J. Biol. Chem., 271, 9090-9 (1996)), containing c-maf responsive element sequence (MARE), was cloned from DNA from HeLa cells and inserted into the pGLbasic firefly luciferase vector (Promega, Madison, Wis.) immediately upstream of the luciferase gene. This construct was co-transfected with pcDNA3 (containing a neomycin resistance gene) into both NIH3T3 wild type cells and NIH3T3 cells stably over-expressing c-maf-IRES-GFP. Cells stably expressing c-maf, GFP, and luciferase were selected.
# (§4) NIH3T3 cells stably expressing c-maf and the CCND2 promoter driving luciferase (13,000 cells per well) were plated in 96-well plates by a Biomek FX liquid handler (Beckman, Fullerton, Calif.). After the cells had adhered, they were treated with aliquots of molecules from LOPAC (Sigma, St. Louis, Mo.), Prestwick (Prestwick Chemical Inc, Illkirch, France) or Spectrum (Microsource Discovery Systems, Gaylordsville, Conn.) libraries of off-patent drugs and chemicals at a final concentration of ˜5 μM and <0.1% DMSO. Cells were incubated with compounds at 37° C. for 16 hours.
# Luciferase assay. Luciferase activity was assessed according to the manufacturer's instructions (Promega, Madison, Wis.). Briefly, the cell culture medium was removed using an EMBLA plate washer (Molecular Devices, X) and Glo Lysis buffer (Promega) was added by robot. After a 10-minute incubation, an equal volume of Bright-Glo Luciferase substrate (Promega) was added, and luminescence signal was detected with a 96-well Luminoskan luminescence plate reader (Thermo Labsystem, Waltham, Mass.) using a 5 second integration.
# Studies of kinetin riboside using 3T3-D2-luc cells. To examine CCND2 suppression induced by kinetin riboside, the reporter cells were exposed to kinetin riboside in combination with other drugs (all purchased from Sigma, St. Loius, Mo.) that influence CCND2 transcription or inhibit nucleoside transport or phosphorylation. NIH3T3 cells expressing the CCND2 promoter driving luciferase were incubated with kinetin riboside or vehicle control +/− forskolin, 4-(3-butoxy-4-methoxybenzyl)imidazolidin-2-one (BMBI), cantharadin, S-(4-Nitrobenzyl)-6-thioinosine (NBTI), or A-134974, as specified at 5 μM concentration for 16 hours at 37° C. […] Forskolin is a cell-permeable diterpenoid that activates adenylate cyclase resulting in increased cAMP concentration. BMBI (Sigma B8279) is an inhibitor of cAMP phosphodiesterase that also causes accumulation of cAMP. Cantharadin (C7632) is an inhibitor of protein phosphatase 2A and, from the library screen, mediates induction of CCND2. NBTI (Sigma N2255) is a potent adenosine uptake inhibitor, and A-134974 (Sigma A2846) is a selective inhibitor of adenosine kinase.
# (§5) In an optimized automated assay, NIH3T3 cells over-expressing c-maf and the human cyclin D2 promoter driving luc were plated in 96-well plates by robot and following adhesion were treated for 16 hours with compounds at a final concentration of ˜5 μM and <0.1% DMSO. As a control, cells were treated with buffer alone. […] Thus, each compound from the library was tested in at least two assays—luciferase for CCND2 activity and MTS for viability. The coefficient of variance (CV) of the assay was <10%.
# HMCL = experiment: Cell cycle profiling of HMCL by flow cytometry; assay type: cell-based, human; conditions: Example 1, HMCL
# Protocol: Cell cycle profiling. HMCL were incubated with drug or vehicle as indicated, washed and resuspended in 1 mL PBS. Ice cold ethanol was added dropwise to 75% with regular mixing, and suspensions were incubated at −20° C. for 1 hour. Cells were washed again with PBS and resuspended in 0.1 mL RNAse A (100 μg/mL) at room temperature for 5-10 minutes. Propidium iodide (200 μL×100 μg/mL) was added immediately prior to analysis by flow cytometry. Cellular aggregates were excluded using CellQuest Doublet Discriminator Module, and cell cycle profile was determined using ModFit LT Mac 3.1 SP2 (Verity Software House, TopSham, Me.).
# [2] = tested on: CD138− hematopoietic cells; experiment: Unsorted myeloma patient bone marrow, flow cytometry: CD138- non-malignant cells; assay type: cell-based; conditions: for toxicity for normal / non-malignant patient hematopoietic cells: patient bone marrow
# Protocol: as §1, §2
# NIH3T3 cells = assay type: cell-based, mouse; conditions: MTS
# Protocol: as §4, §3, §5
# [3] = tested on: cyclin D1, cyclin D2, cyclin D3; experiment: Immunoblot of cyclin D proteins in HMCL; assay type: cell-based, human; conditions: A-134974 2 μM, kinetin riboside 10 μM
# Protocol: (§6) Immunoblotting. Cytosolic extracts were prepared from HMCL or purified patient CD138^+ myeloma cells following exposure to kinetin riboside. Cells were washed with cold PBS, resuspended in cold RIPA buffer (5×10^6 cells/100 μL) containing fresh protease and phosphatase inhibitors (Santa Cruz Biotechnology, Santa Cruz, Calif.) and incubated on ice for 30 minutes with gentle mixing. The supernatant was repossessed following high speed centrifugation, and protein concentrations were determined by the Bradford assay. Immunoblot assays were performed as described elsewhere (Krajewski et al., Anal. Biochem., 236:221-228 (1996)). Briefly, equal amounts of protein were separated by SDS-PAGE and transferred to a PVDF nitrocellulose membrane using a semi-dry apparatus. Membranes were blocked using 5% skim milk in Tris buffered saline and probed with monoclonal mouse anti-cyclin D1 (DCS-6, Biosource, Camarillo, Calif.), polyclonal rabbit anti-cyclin D2 (#2924, Cell Signalling Technology), monoclonal mouse anti-cyclin D3 (DCS-22, BioSource), polyclonal rabbit anti-c-Maf (M-153, Santa Cruz), polyclonal rabbit anti-Cleaved Caspase 9 (Asp315) (Cell Signaling Technology), monoclonal mouse anti-β-actin (Cell Signaling Technology) and/or monoclonal anti-a-tubulin (B-7)(Santa Cruz Biotechnology, Santa Cruz, Calif.). Membrane proteins were visualized using HRP-conjugated species-specific secondary antibodies (Cell Signaling Technology) and enhanced chemiluminescence (Pierce, Rockford, Ill.).
# caspase 9 = experiment: Immunoblot of caspase 9 cleavage in HMCL; assay type: cell-based, human; conditions: A-134974 2 μM, kinetin riboside 10 μM
# Protocol: as §6, with “Membrane proteins were visualized using HRP-conjugated species-specific secondary antibodies (Cell Signaling Technology) and enhanced chemiluminescence (Pierce, Rockford, Ill.).” left out
smiles,measurement,setting,value
CC(C)=CCCC1(C)C=Cc2c(O)c3c(c(CC=C(C)C)c2O1)OC12C(=CC4CC1C(C)(C)OC2(C/C=C(/C)C(=O)O)C4O)C3=O (stereo not shown) [dihydrogambogic acid],activity against CD138+ myeloma cells compared with non malignant hematopoietic cells,CD138+ myeloma cells,selective activity
same,cytotoxic concentration across panel of 14 HMCL,[1]; human,250 to 800 nM
same,suppression of CCND2 promoter in absence or presence of c-maf,CCND2 promoter; NIH3T3 CCND2-luc with or without c-maf,c-maf independent specific suppression of the CCND2 promoter
same,identified as putative inhibitor of CCND2 transactivation (screen hit),CCND2 promoter,putative CCND2 inhibitors; also recorded: putative suppressors of CCND2
"CC[C@@]1(O)C(=O)OCc2c1cc1n(c2=O)Cc2cc3ccccc3nc2-1 [camptothecin, reference compound]",cytotoxic concentration across panel of 14 HMCL,"[1]; MTT assays, 14 HMCL",5 to 700 nM
same,identified as putative inhibitor of CCND2 transactivation (screen hit),CCND2 promoter,putative CCND2 inhibitors; also recorded: putative suppressors of CCND2
same,cell cycle arrest phase,HMCL,S-phase arrest
C/C=C(/C)C(=O)O[C@H]1C(C)=C2[C@H]([C@@H]1OC(=O)CCCCCCC)[C@@](C)(OC(C)=O)C[C@H](OC(=O)CCC)[C@@]1(O)[C@H]2OC(=O)[C@@]1(C)O [thapsigargin],identified as putative inhibitor of CCND2 transactivation (screen hit),CCND2 promoter,putative CCND2 inhibitors
"O=[N+]([O-])c1ccc(CSc2ncnc3c2ncn3[C@@H]2O[C@H](CO)[C@@H](O)[C@H]2O)cc1 [NBTI, S-(4-Nitrobenzyl)-6-thioinosine]",effect on kinetin riboside-induced suppression of CCND2,CCND2 promoter,does not block kinetin riboside function
C[C@H]1CCC/C=C/[C@@H]2C[C@H](O)C[C@H]2[C@H](O)/C=C/C(=O)O1 [brefeldin A],identified as putative inhibitor of CCND2 transactivation (screen hit),CCND2 promoter,putative CCND2 inhibitors
"CC1(C)CCC2=C(O1)c1ccccc1C(=O)C2=O [β-lapachone, reference compound]",identified as putative inhibitor of CCND2 transactivation (screen hit),CCND2 promoter,putative CCND2 inhibitors
same,cell cycle arrest phase,HMCL,S-phase arrest
C[C@@]12C(=O)OC(=O)[C@]1(C)[C@H]1CC[C@@H]2O1 [cantharadin],"effect on CCND2-luc expression, agent alone",CCND2 promoter,marked transactivation
"CC[C@@]1([C@@H]2O[C@@H]([C@H]3O[C@@](O)(CO)[C@H](C)C[C@@H]3C)C[C@@H]2C)CC[C@H]([C@]2(C)CC[C@]3(C[C@H](O)[C@@H](C)[C@@H]([C@@H](C)[C@@H](OC)[C@H](C)C(=O)O)O3)O2)O1 [monensin, reference compound]",cytotoxic concentration across panel of 14 HMCL,[1]; human,10 to 760 nM
same,toxicity for normal / non-malignant patient hematopoietic cells,[2],almost equal toxicity for normal cells
same,toxicity for normal / non-malignant patient hematopoietic cells,[2]; listed as Monensin,excessive non-specific toxicity
same,identified as putative inhibitor of CCND2 transactivation (screen hit),CCND2 promoter,putative CCND2 inhibitors; also recorded: putative suppressors of CCND2
CC[C@@]1(O)C[C@H](O[C@H]2C[C@H](N(C)C)[C@H](O)[C@H](C)O2)c2c(cc3c(c2O)C(=O)c2c(O)cccc2C3=O)[C@H]1C(=O)OC [aklavine],identified as putative inhibitor of CCND2 transactivation (screen hit),CCND2 promoter,putative suppressors of CCND2
same,effect on NIH3T3 viability,NIH3T3 cells,excess NIH3T3 cytoxicity
Nc1ncnc2c1c(I)cn2[C@@H]1C[C@H](N)[C@@H](O)[C@H]1O [A-134974],effect on cyclin D1 and D2 levels in kinetin riboside-treated HMCL,[3],partially rescues
same,"effect on CCND2-luc expression, agent alone",CCND2 promoter,minimal enhancement
same,effect on kinetin riboside-induced suppression of CCND2,CCND2 promoter,completely inhibits
same,effect on NIH3T3 viability,NIH3T3 cells,no effect on 3T3 cell viability
same,effect on kinetin riboside-induced caspase 9 cleavage in HMCL,caspase 9,prevents
"N[C@@H](Cc1ccc(N(CCCl)CCCl)cc1)C(=O)O [melphalan, reference compound]",effect on non-malignant CD138− marrow cells,"[2]; 48 hours, kinetin riboside 5 μM",killed proportionately more healthy CD138− marrow cells than malignant myeloma cells
"CCCCOc1cc(CC2CNC(=O)N2)ccc1OC (stereo not shown) [BMBI, 4-(3-butoxy-4-methoxybenzyl)imidazolidin-2-one]","effect on CCND2-luc expression, agent alone",CCND2 promoter,CCND2 transactivation
N=C1C=CC(=C(c2ccc(N)cc2)c2ccc(N)cc2)C=C1 [pararosaniline pamoate],identified as putative inhibitor of CCND2 transactivation (screen hit),CCND2 promoter,putative suppressors of CCND2
CN(C)c1ccc(C(=C2C=CC(=[N+](C)C)C=C2)c2ccc(N(C)C)cc2)cc1 [gentian violet],identified as putative inhibitor of CCND2 transactivation (screen hit),CCND2 promoter,putative CCND2 inhibitors; also recorded: putative suppressors of CCND2
